Measured values from PMC5363837 (Circulation, 2017).
One block for each molecule: values may come before it. Bridge positions count the residues as written; N and C are the ends. Ends that are not written are not given here. Peptide text beside a SMILES is read from it.

How the values were obtained:
[1] = biological target: T1, human apelin receptor (Homo sapiens, UniProt P35414); assay: β-arrestin recruitment assay (DiscoveRx), CHO-K1 cells; type: cell-based; parameters: host or cells: CHO-K1
T1 sequence (P35414 1-380): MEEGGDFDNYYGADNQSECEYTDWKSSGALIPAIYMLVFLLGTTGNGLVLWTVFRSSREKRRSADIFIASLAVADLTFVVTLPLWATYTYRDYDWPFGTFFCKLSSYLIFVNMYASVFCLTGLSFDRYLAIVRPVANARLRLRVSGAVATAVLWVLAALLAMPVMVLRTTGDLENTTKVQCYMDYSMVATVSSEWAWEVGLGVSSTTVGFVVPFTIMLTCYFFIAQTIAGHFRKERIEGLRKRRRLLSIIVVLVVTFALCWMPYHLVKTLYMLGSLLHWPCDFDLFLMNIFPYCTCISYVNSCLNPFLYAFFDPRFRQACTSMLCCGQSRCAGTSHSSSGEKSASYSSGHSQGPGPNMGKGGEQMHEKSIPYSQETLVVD
Source text: (§1) Inhibition of cAMP accumulation, β-arrestin recruitment, and receptor internalization assays were used to determine values of potency (pD2 [–log10 EC50]) and maximum response (EMAX). pD2 values were compared by using 1-way ANOVA with Tukey multiple comparison.
β-Arrestin ass a ys wer e conducted as previousl y described1.CHO- K1 cells artificially
ex pressing the human ap elin recepto r wer e seeded in C ell P lating medium into 96-well plates
3μmol/L ) wer e diluted in Cell Plating mediumand added to the cells for 90 minutes at 37 °C..
Detection reagents were then added fo ra 2- hour incubation at room temperature
followed b y chemiluminescence r eadin g. Respon ses measured in relatve li ght units wer e fitted
(§2) to 4 parameter logistic concentration response curves in GraphPad Prism 6 (La J olla, CA,
(§3) USA) and values o f pD 2 ( -log10 EC 50) and maximum response (EM AX ) w er e calcul at ed for each
(§4) used as the refer ence ago nists in each assa y.

[2] = biological target: T1, human apelin receptor; assay: Inhibition of forskolin-induced cAMP accumulation (DiscoveRx), CHO-K1 cells; type: cell-based; parameters: host or cells: CHO-K1
[3] = biological target: T1, human apelin receptor; assay: Receptor internalization assay (DiscoveRx), U2OS cells; type: cell-based
Source text: as §1
Responses measured in r elative light units were fitted to 4 parameter logistic
concentration response curves in GraphPad Prism 6 (La J olla, CA, USA) and values of
potenc y,pD 2 ( -log10 EC 50 (where EC 50 is the concentration producing half maximal response) ),
and maximum response (EM AX ) w ere calculat ed fo r each compound.Data were subs equentl y
Respon ses measured in relatve li ght units wer e fitted
as §2, §3, §4
Internalisation a ssa ys w ere co nduct ed as previously des cribed1.U2OS cells artificially
ex pressing the human ap elin recepto r wer e seeded in Cell Plating medium in 96 -well plates and
incubated for 48 hours at 37 °C in 5% CO 2.
the cells for 3 hours at 37 °C. This was followed b y incubation with the detection reagents fo r
90 minutes at room temperature and luminescen ce readin g .D at a were an al y s ed as described
for the β -arrestin assa y .

[4] = biological target: T1, human apelin receptor; assay: Competition binding of ELA-21 in normal and PAH human LV and RV homogenate; parameters: host or cells: CHO-K1; conditions: pooled homogenate, mean±SEM, n=3
Procedure: Experiments were conducted in homogenate of human ventricle or Chinese hamster ovary (CHO)-K1 cells expressing the human apelin receptor.
To investigate whether the affinit y of ELA peptides or the density of ELA binding sites is altered in human PAH competition binding experiments were repeated as described above using ELA-21 as the com peting li gand in LV and RV from pooled homogenate from six patients transplanted for PAH and LV and RV from six normal hearts as controls. Datafrom triplicate experiments were anal yzed usin g the iter ative non -linear curve fitting programs EBDA and LIGAND (KELL package, Biosoft, UK) to determine values of affinity (K D) and recepto r densit y (B M AX ). Values were compared for LV and RV between P AH and controls using Student’s 2- tailed t -test. […]

[5] = biological target: T1, human apelin receptor; assay: Competition binding, [125I]apelin-13, homogenate of human left ventricle; conditions: read-out: pKi in human LV (converted)
Procedure: (§5) For structure activity studies competition binding experiments were conductedin triplicate in
(§6) homogenate of pooled human LV from cardiom yopathy patients as previousl y described 1.
(§7) Homogenate of human LV wa s incubat ed for 90 min with 0.1nmol/L [Glp 65,Nle75, T yr 77]
[125 I] apelin-13 in assa y buffer (mmol/ L: Tris 50, MgCl2 5, pH 7.4, 22 °C), in the presence of
(§8) (0.5pmol/ L-10μmol/L) ( n=3 each). Non- specific binding was defined using 1μmol/L
(§9) Equilibrium was broken b y centrifugation (20,000g for 10 min, 4 °C). Pellets
(§10) were washed with Tris-H Cl buffer (50 mmol/ L, pH 7.4, 4 °C), re-centrifuged and bound
(§11) radioactivity in final pellets counted. Data from triplicate experiments wer e anal yz ed using th e
(§12) iterative non-linear curve fitting programs EBDA and LIGAND (KELL package, Biosoft, UK)
(§13) or GraphPad Prism6 and to derive values of affinit y (ex pressed as the –log 10 of the dissociation

[6] = biological target: T1, human apelin receptor; assay: Competition binding in CHO-K1 cells expressing the human apelin receptor (Cerep); parameters: host or cells: CHO-K1
Procedure: Comptetition Binding Experiments
as §5, §6, §7, §8, §9, §10, §11, §12, §13
constant (pKi ±sem) ) and recepto r densit y (BM AX ± sem).The pK i and B M AX values for the thr ee

[7] = biological target: T2, human apelin receptor expressed in CHO-K1 cells (human, UniProt P35414 1-380); assay: cell-based or functional assay
T2 sequence (looked up): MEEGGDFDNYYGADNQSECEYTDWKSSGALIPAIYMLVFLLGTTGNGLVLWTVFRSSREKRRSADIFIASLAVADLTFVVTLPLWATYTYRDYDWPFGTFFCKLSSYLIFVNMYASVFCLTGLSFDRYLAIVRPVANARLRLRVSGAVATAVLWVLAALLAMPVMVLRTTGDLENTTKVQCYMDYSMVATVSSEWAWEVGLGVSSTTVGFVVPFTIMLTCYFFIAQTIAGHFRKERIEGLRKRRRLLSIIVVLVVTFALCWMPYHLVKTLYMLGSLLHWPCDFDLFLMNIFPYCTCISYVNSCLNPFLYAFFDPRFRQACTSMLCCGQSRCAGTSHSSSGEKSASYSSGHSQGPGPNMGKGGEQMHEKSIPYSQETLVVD

[8] = biological target: T2, human apelin receptor expressed in …; assay: radioligand binding; competition binding in CHO-K1 cells expressing the human apelin receptor; conditions: one partner purified

Emax ([1]; CHO-K1): 102 ± 1% | EC50 ([1]; read-out: β-Arrestin pD2 (converted)): 0.132 nM | Emax ([2]; CHO-K1): 101 ± 1% | EC50 ([2]; read-out: cAMP pD2 (converted)): 0.372 nM | Emax ([3]; U2OS): 96 ± 2% | EC50 ([3]; U2OS cells, 3 hours, 37°C, mean±SEM, n=3-5 assays, 2-6 replicates, read-out: Internalization pD2 (converted)): 0.282 nM | Ki ([4]; PAH human left ventricle, read-out: pKi, LV PAH (converted)): 0.347 nM | Ki ([4]; PAH human right ventricle, read-out: pKi, RV PAH (converted)): 0.501 nM | Ki ([4]; normal human left ventricle, read-out: pKi, LV normal (converted)): 0.49 nM | Ki ([4]; normal human right ventricle, read-out: pKi, RV normal (converted)): 1.05 nM | Ki [5]: 3.02 nM
Molecule: CSCC[C@H](NC(=O)[C@@H]1CSSC[C@H](NC(=O)[C@H](CC(N)=O)NC(=O)[C@H](Cc2c[nH]cn2)NC(=O)[C@H](CCCCN)NC(=O)[C@H](CCCNC(=N)N)NC(=O)[C@@H](N)CC(C)C)C(=O)N[C@@H](CC(C)C)C(=O)N[C@@H](CCC(N)=O)C(=O)N[C@@H](CCCNC(=N)N)C(=O)N[C@@H](CCCNC(=N)N)C(=O)N1)C(=O)N1CCC[C@H]1C(=O)N[C@@H](CC(C)C)C(=O)N[C@@H](Cc1c[nH]cn1)C(=O)N[C@@H](CO)C(=O)N[C@@H](CCCNC(=N)N)C(=O)N[C@H](C(=O)N1CCC[C@H]1C(=O)N[C@@H](Cc1ccccc1)C(=O)N1CCC[C@H]1C(=O)O)C(C)C [ELA-21]

fold drop in affinity versus ELA-32, ELA-21 and ELA-14 [6]: 100 fold
Molecule: CSCC[C@@H]1NC(=O)[C@@H](N)CSSC[C@@H](C(=O)N[C@@H](CCCNC(=N)N)C(=O)N[C@H](C(=O)N2CCC[C@H]2C(=O)N[C@@H](Cc2ccccc2)C(=O)N2CCC[C@H]2C(=O)O)C(C)C)NC(=O)[C@H](Cc2c[nH]cn2)NC(=O)[C@H](CC(C)C)NC(=O)[C@@H]2CCCN2C1=O [cyclo[1–6]ELA-11] (HELM PEPTIDE1{C.M.P.L.H.C.R.V.P.F.P}$PEPTIDE1,PEPTIDE1,1:R3-6:R3$$$V2.0; N-terminus and C-terminus assumed)

cAMP assay, pD2 (-log10 EC50) [7]: 9.42 | β-arrestin recruitment assay, pD2 (-log10 EC50) [7]: 7.67 | pKi [8]: 7.27
B1: cyclo[1–6]ELA-11 (peptide)
chain: CMPLHCRVPFP
modifications: disulfide 1-6
